Data on seven molecules can be found in article PMC8211464 (Journal of medicinal chemistry, 2021).

The test system of one series is Pf 3D7. It is filed as cell-based. The following applies: Plasmodium falciparum, 3D7, read-out: Pf3D7 IC50±SD.
For a further series, the system named is PfDd2. It is filed as cell-based. Particulars: Plasmodium falciparum, read-out: PfDd2 IC50±SD.
The test system of series [1] is FCB WT and FCB KD parasite lines. Description: Potency against FCB lines with different pfmdr1 copy numbers. It is filed as cell-based, Plasmodium falciparum. The following applies: FCB WT (two copies of pfmdr1) versus FCB KD (one functional copy).
For a further series, the system named is HepG2. Particulars: read-out: HepG2 IC50; cytotoxicity; previously published ref 7 (Leven et al.); cited from earlier work.
For series [2], the system named is heme detoxification in Pf NF54 trophozoites. Description: Pyridine-based cellular heme fractionation assay. It is filed as cell-based, Plasmodium falciparum. Particulars: Pf NF54, 1.5 to 2.5 × IC50.
A further series has as its system Pf Dd2 clone B2 (Dd2-B2). It is filed as cell-based, Plasmodium falciparum. The following applies: triplicate flasks of 2 × 10^9 Dd2-B2 parasites, 3× to 5× IC50.
Another series concerns Pf_Polδ. It is filed as cell-based, Plasmodium falciparum. Particulars: Pf_Polδ parasites exposed to 45 nM (3 × IC50).
Series [3] has as its system compound 1-resistant clones Fl2-C4 and Fl3-C3. It is filed as cell-based, Plasmodium falciparum. Particulars: clones Fl2-C4 and Fl3-C3, standard 72 h drug-response assay.
Series [4] can be described thus: Snapshot in vivo PK, dried blood spots, LC-MS/MS. Particulars: mouse, po; for k el: ke.
The conditions of series [5]: human, 5 h, 1 μM, pH 7.4.
Setting [6] is: 4 × 30 mg/kg oral, monitored up to 30 days.

Where two headings read alike, the source gives them in different places.

On to `C[C@H]1[C@H](OC(=O)CCC(=O)O)O[C@@H]2O[C@@]3(C)CC[C@H]4[C@H](C)CC[C@@H]1[C@@]24OO3` [AS, artesunate, reference compound], for which, in the series on Plasmodium berghei (4 × 30 mg/kg oral), the “cured (number of parasite-free mice on day 30)” value is on record as 0/10.
Regarding `CCN(CC)CCCC(C)Nc1ccnc2cc(Cl)ccc12` (centres unmarked) [CQ, Chloroquine], the results for the IC50 with Pf 3D7 and with PfDd2 were 6 ± 2 nM and 230 ± 100 nM, respectively. Further, the “cured (number of parasite-free mice on day 30)” value in the series on Plasmodium berghei (4 × 30 mg/kg oral) is given as 0/10.
Consider `N/C(CC(O)c1cc2c(F)cc(F)cc2c2cc(C(F)(F)F)ccc12)=N\N=C\c1ccc(F)cc1` (centres unmarked) [Compound 1], for which the “effect of pfmdr1 copy number on sensitivity” value in series [1] is given as “the decrease from two to one pfmdr1 copy caused a further sensitization”. Also, the results for the “cured (number of parasite-free mice on day 30)” value in the series on Plasmodium berghei (4 × 10 mg/kg oral), in the series on Plasmodium berghei (4 × 30 mg/kg oral) and in the series with Plasmodium berghei (4 × 50 mg/kg oral) were 2/3, 1/3 and 1/3, respectively. In addition, in the series on Plasmodium berghei (setting [6]), the “MSD (mean survival time)” value was determined as 26 days. The IC50 (usually the concentration at which inhibition is half-maximal) in the series on HepG2 was 27700 nM.
Consider `COc1ccc(/N=C(\N)CC(O)c2cc3c(F)cc(F)cc3c3cc(C(F)(F)F)ccc23)cc1.Cl` (centres unmarked) [Compound 22, (Z)-3-(1,3-Difluoro-6-(trifluoromethyl)phenanthrene-9-yl)-3-hydroxy-N′-(4-methoxyphenyl)propanimidamide Hydrochloride], for which the “inhibition of hemoglobin degradation” value in series [2] was “some inhibition of hemoglobin degradation”. Moreover, the results for the “outcome of resistance selection” value with Pf Dd2 clone B2 (Dd2-B2) and in the series on Pf_Polδ were “no viable parasites after 60 days” and “unable to readily generate resistant parasites”, respectively. For the same molecule, in [3], the “shift in IC50 value in compound 1-resistant clones” value was 1.6 fold. The “effect of pfmdr1 copy number on sensitivity” value in series [1] was “the decrease from two to one pfmdr1 copy caused a further sensitization”. Moreover, the cure rate is listed as 33% in the series with Plasmodium berghei (30 mg/kg once daily oral for 4 consecutive days) and 66% in the series with Plasmodium berghei (50 mg/kg once daily oral for 4 consecutive days). For the same molecule, the “MSD (mean survival time)” value in the series with Plasmodium berghei (4 × 3 mg/kg oral) is “euthanized”; in the series with Plasmodium berghei (setting [6]), 28 days. In addition, the “cured (number of parasite-free mice on day 30)” value is on record as 0/3 with Plasmodium berghei (4 × 3 mg/kg oral), 0/3 with Plasmodium berghei (4 × 10 mg/kg oral), 1/3 in the series with Plasmodium berghei (4 × 30 mg/kg oral) and 2/3 in the series on Plasmodium berghei (4 × 50 mg/kg oral). Further, in the series with Plasmodium berghei (mice, oral doses 3-50 mg/kg), the “signs of toxicity during the in vivo studies” value is listed as “no obvious signs of toxicity”. Further, the values for the AUC(0-inf) in series [4] (3 mg/kg), in [4] (10 mg/kg) and in [4] (30 mg/kg) were 30 ng·h/mL, 365 ng·h/mL and 1310 ng·h/mL, respectively. The AUC(0-t) (in general, the area under the concentration-time curve up to a stated or last time point) in series [4] (3 mg/kg) was 28.9 ng·h/mL; in [4] (10 mg/kg), 361 ng·h/mL; in series [4] (30 mg/kg), 1080 ng·h/mL. For the same molecule, the results for the half-life in series [4] (3 mg/kg), in [4] (10 mg/kg) and in series [4] (30 mg/kg) were 5.49 h, 5.26 h and 9.95 h, respectively. Besides, the k el was 3.69e-05 s⁻¹ in series [4] (3 mg/kg, single oral dose 3 mg/kg, mouse I); 3.51e-05 s⁻¹ in series [4] (3 mg/kg, single oral dose 3 mg/kg, mouse II); 4.66e-05 s⁻¹ in [4] (10 mg/kg, single oral dose 10 mg/kg, mouse I); 3.66e-05 s⁻¹ in [4] (10 mg/kg, single oral dose 10 mg/kg, mouse II); 1.94e-05 s⁻¹ in series [4] (30 mg/kg, single oral dose 30 mg/kg, mouse I); 2.74e-05 s⁻¹ in series [4] (30 mg/kg, single oral dose 30 mg/kg, mouse II).
Regarding `Cl.N/C(CC(O)c1c2ccccc2cc2ccccc12)=N\c1ccc(F)cc1` (centres unmarked) [Compound 23, (Z)-3-(Anthracene-9-yl)-N′-(4-fluorophenyl)-3-hydroxypropanimidamide Hydrochloride], the “cured (number of parasite-free mice on day 30)” value in the series with Plasmodium berghei (4 × 50 mg/kg oral) is on record as 0/3. For the same molecule, in the series on Plasmodium berghei (4 × 50 mg/kg oral, monitored up to 30 days), the “MSD (mean survival time)” value is “euthanized”. In the series with Plasmodium berghei (4 × 50 mg/kg oral, parasitemia by FACS on day 4, 50 mg/kg), the activity came to 44%.
For the molecule `CCCCN(CCCC)CCC(O)c1cc2c(Cl)cc(Cl)cc2c2cc(C(F)(F)F)ccc12` (centres unmarked) [HF, Halofantrine], in [5], the plasma protein binding turned out to be 100%.
Turning to `CCCCN(CCCC)CC(O)c1cc(Cl)cc2c1-c1ccc(Cl)cc1/C2=C/c1ccc(Cl)cc1` (centres unmarked) [LUM, Lumefantrine, reference compound], the “cured (number of parasite-free mice on day 30)” value with Plasmodium berghei (4 × 30 mg/kg oral) is recorded as 3/3.
